This is an account of results in US10221169B2, “Substituted aminothiazoles for the treatment of tuberculosis” (THE BROAD INSTITUTE, INC., priority 2013, dated 2019).

In brackets after ≈: the same amount, converted by molar mass.

Test [1] relates to Non-replicating Mtb Carbon-starved. The test is described as follows: Non-replicating carbon-starved Mtb IC99 by luciferase. The test is classed as cell-based, M. tuberculosis H37Rv. The following applies: Mycobacterium tuberculosis, luciferase readout, 99% killing.
A further test deals with Replicating Mtb. The test is described as follows: microbe, parasite or virus in culture. The following applies: log-phase Mtb; for IC90: Mycobacterium tuberculosis, 72 h, read-out: Replicating Mtb Log MIC IC90 (uM, GFP) (converted). The test is classed as cell-based, M. tuberculosis H37Rv.
The next test relates to M. tuberculosis. The test is described as follows: MIC of control anti-tuberculosis antibiotics. Type of test: cell-based. The conditions noted are these: Mycobacterium tuberculosis, MIC used as reference for 10× MIC.

In test [1], `CC(C)(C)OC(=O)COc1cccnc1Nc1nc(-c2ccccn2)cs1` [Compound 20, tert-butyl 2-((2-((4-(pyridin-2-yl)thiazol-2-yl)amino)pyridin-3-yl)oxy)acetate] yielded a minimum inhibitory concentration (MIC) of 4 µM (≈ 1.54 µg/mL). Regarding `COc1ccc(CCNc2nc(-c3ccccn3)cs2)cc1OC` [Compound 5], the 90% effect concentration (IC90) in the test with Replicating Mtb was 62 µM. This compound also yielded an MIC in test [1] of 8 µM (≈ 2.73 µg/mL). On to `Clc1ccc(Nc2nc(-c3ccccn3)cs2)nc1` [Compound 2], for which the concentration for an effect of 90% (IC90) in the test with Replicating Mtb was 2 µM. For the same compound, the minimal inhibitory concentration (MIC) in test [1] was determined as 2 µM (≈ 0.578 µg/mL).

As for `CCOC(=O)c1sc(Nc2ncccc2C)nc1-c1ccccn1` [Compound 18, ethyl 2-((3-methylpyridin-2-yl)amino)-4-(pyridin-2-yl)thiazole-5-carboxylate], in the test with Replicating Mtb, the IC90 was 4 µM. In test [1], it took 8 µM (≈ 2.72 µg/mL) to inhibit growth (MIC).

Turning to `COc1ccc(Nc2nc(-c3ccccn3)cs2)c(OC)c1` [Compound 3], in the test on Replicating Mtb, the 90% effect concentration (IC90) is 8 µM.

Consider `Cc1ccc(-c2csc(Nc3ncccc3C)n2)cc1` [Compound 12], for which, in the test with Replicating Mtb, the IC90 is 125 µM. Still for that read-out and setting: in the case of `Cc1cccnc1Nc1nc(-c2cccnc2)cs1` [Compound 10] it was 125 µM. Take `Cc1cccnc1Nc1nc(-c2ccccn2)c(CN2CCOCC2)s1` [Compound 19, N-(3-methylpyridin-2-yl)-5-(morpholinomethyl)-4-(pyridin-2-yl)thiazol-2-amine]: in the test on Replicating Mtb, the 90% effect concentration (IC90) was 16 µM. This compound also showed an MIC in test [1] of 32 µM (≈ 11.8 µg/mL). As to `Cc1cccnc1Nc1nc(-c2ccncc2)cs1` [Compound 11], the “Replicating Mtb Log MIC IC90 (uM, GFP)” value in the test on Replicating Mtb was “None detected”. For `CO[C@H]1/C=C/O[C@@]2(C)Oc3c(C)c(O)c4c(O)c(c(/C=N/N5CCN(C)CC5)c(O)c4c3C2=O)NC(=O)/C(C)=C\C=C\[C@H](C)[C@H](O)[C@@H](C)[C@@H](O)[C@@H](C)[C@H](OC(C)=O)[C@@H]1C` [rifampin], the MIC in the test on M. tuberculosis amounted to 0.01 µg/mL. As to `CN(C)c1ccc(Nc2nc(-c3ccccn3)cs2)nc1` [Compound 6], the IC90 in the test with Replicating Mtb was 125 µM. The minimal inhibitory concentration (MIC) in test [1] came to 8 µM (≈ 2.38 µg/mL).

In the case of `c1ccc(Nc2nc(-c3ccccn3)cs2)nc1` [Compound 13], in the test on Replicating Mtb, the 90% effect concentration (IC90) was 8 µM. On the same count and under the same terms, the value for `Cc1ccnc(Nc2nc(-c3ccccn3)cs2)c1` [Compound 14] was 16 µM. With `Cc1ccccc1Nc1nc(-c2ccccn2)cs1` [Compound 9], in the test with Replicating Mtb, the IC90 was 62 µM. Moreover, in test [1], inhibition of growth (MIC) required 8 µM (≈ 2.14 µg/mL).

For `Cc1cccnc1Nc1nc(-c2ccccn2)c(Br)s1` [Compound 17, 5-bromo-N-(3-methylpyridin-2-yl)-4-(pyridin-2-yl)thiazol-2-amine], in the test on Replicating Mtb, the IC90 was less than 1 µM. In test [1], this compound gave a minimal inhibitory concentration (MIC) of less than 16 µM. On the same counts, the results for `Cc1cccnc1Nc1nc(-c2ccccn2)cs1` [Compound 1, N-(3-methylpyridin-2-yl)-4-(pyridin-2-yl)thiazol-2-amine] are 0.5 µM and 1 µM (≈ 0.268 µg/mL). As for `C/C(=N\Nc1nc(C)c(C)s1)c1ccc(Br)cc1` [Compound 15], the IC90 in the test on Replicating Mtb is 62 µM. In addition, it took 16 µM (≈ 5.19 µg/mL) to inhibit growth in test [1] (MIC).

For `O=C(O)COc1cccnc1Nc1nc(-c2ccccn2)cs1` [Compound 21, 2-((2-((4-(pyridin-2-yl)thiazol-2-yl)amtno)pyridin-3-yl)oxy)acetic acid], the IC90 in the test with Replicating Mtb is 125 µM. The same compound yielded a minimum inhibitory concentration (MIC) in test [1] of more than 125 µM. In the case of `FC(F)(F)c1ccccc1Nc1nc(-c2ccccn2)cs1` [Compound 4], the 90% effect concentration (IC90) in the test with Replicating Mtb was 62 µM.

The MIC is the lowest concentration found to suppress growth. As a reminder, the IC90 is the concentration at which the effect reaches the 90% level.
